Source: the supplement of paper PMC4862054

Tested on: MDA-MB-468
Experiment: normalised response (% of control), CellTiter-Glo; higher = more viable cells (100 = DMSO, 0 = benzethonium chloride kill control)
Conditions: incubation time: 72 h
How it was run: (§1)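 In 384-well plates holding compound at 5 concentrations in 10-fold steps over a 10,000-fold range specific to each compound, breast cancer cell lines were seeded as 20 µl suspension and incubated 72 h. CellTox Green fluorescence was measured at 485/520 nm, after which CellTiter-Glo luminescence was measured following 10 min at room temperature. Plate signals were normalised to 0.1 % DMSO (100) and a positive kill control (0), and each value is the normalised signal at a single concentration.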

SMILES | normalised response [%]
COc1cc2nccc(Oc3ccc(NC(=O)C4(C(=O)Nc5ccc(F)cc5)CC4)cc3)c2cc1OC [Cabozantinib] (1000 nM) | 87.2
CC1(C)NC(=O)N(c2ccc([N+](=O)[O-])c(C(F)(F)F)c2)C1=O [Nilutamide] (10000 nM) | 111

Tested on: HCC1937
Experiment: as above
Conditions: incubation time: 72 h
How it was run: as §1

SMILES | normalised response [%]
N[C@@H](CSC(c1ccccc1)(c1ccccc1)c1ccccc1)C(=O)O [S-trityl-L-cysteine] (40000 nM) | 93.5
CNCc1ccc(-c2[nH]c3cc(F)cc4c3c2CCNC4=O)cc1 [Rucaparib] (10000 nM) | 79.7
CO[C@H]1/C=C\C=C(/C)C(=O)NC2=CC(=O)C(NCCN(C)C)=C(C[C@@H](C)C[C@H](OC)[C@H](O)[C@@H](C)/C=C(\C)[C@@H]1OC(N)=O)C2=O [Alvespimycin] (1000 nM) | 21.6
CN(C)/N=N/c1[nH]cnc1C(N)=O [Dacarbazine] (10000 nM) | 96.5
Cc1ccc(-n2nc(C(C)(C)C)cc2NC(=O)Nc2ccc(OCCN3CCOCC3)c3ccccc23)cc1 [Doramapimod] (10000 nM) | 77.7
Cc1ccc(C(=O)Nc2ccc(CN3CCN(C)CC3)c(C(F)(F)F)c2)cc1C#Cc1cnc2cccnn12 [Ponatinib] (1000 nM) | 60.6
COc1cc2nccc(Oc3ccc(NC(=O)C4(C(=O)Nc5ccc(F)cc5)CC4)cc3)c2cc1OC [Cabozantinib] (1000 nM) | 95.4
CC1(C)NC(=O)N(c2ccc([N+](=O)[O-])c(C(F)(F)F)c2)C1=O [Nilutamide] (10000 nM) | 94.3

Tested on: CAL-120
Experiment: as above
Conditions: incubation time: 72 h
How it was run: as §1

SMILES | normalised response [%]
N[C@@H](CSC(c1ccccc1)(c1ccccc1)c1ccccc1)C(=O)O [S-trityl-L-cysteine] (40000 nM) | 101
CNCc1ccc(-c2[nH]c3cc(F)cc4c3c2CCNC4=O)cc1 [Rucaparib] (10000 nM) | 97.8
CO[C@H]1/C=C\C=C(/C)C(=O)NC2=CC(=O)C(NCCN(C)C)=C(C[C@@H](C)C[C@H](OC)[C@H](O)[C@@H](C)/C=C(\C)[C@@H]1OC(N)=O)C2=O [Alvespimycin] (1000 nM) | 47.8
CN(C)/N=N/c1[nH]cnc1C(N)=O [Dacarbazine] (10000 nM) | 86
Cc1ccc(-n2nc(C(C)(C)C)cc2NC(=O)Nc2ccc(OCCN3CCOCC3)c3ccccc23)cc1 [Doramapimod] (10000 nM) | 94.8
Cc1ccc(C(=O)Nc2ccc(CN3CCN(C)CC3)c(C(F)(F)F)c2)cc1C#Cc1cnc2cccnn12 [Ponatinib] (1000 nM) | 41.2
COc1cc2nccc(Oc3ccc(NC(=O)C4(C(=O)Nc5ccc(F)cc5)CC4)cc3)c2cc1OC [Cabozantinib] (1000 nM) | 95.2
CC1(C)NC(=O)N(c2ccc([N+](=O)[O-])c(C(F)(F)F)c2)C1=O [Nilutamide] (10000 nM) | 103

Tested on: Hs578T
Experiment: as above
Conditions: incubation time: 72 h
How it was run: as §1

SMILES | normalised response [%]
N[C@@H](CSC(c1ccccc1)(c1ccccc1)c1ccccc1)C(=O)O [S-trityl-L-cysteine] (40000 nM) | 89.6
CNCc1ccc(-c2[nH]c3cc(F)cc4c3c2CCNC4=O)cc1 [Rucaparib] (10000 nM) | 93
CO[C@H]1/C=C\C=C(/C)C(=O)NC2=CC(=O)C(NCCN(C)C)=C(C[C@@H](C)C[C@H](OC)[C@H](O)[C@@H](C)/C=C(\C)[C@@H]1OC(N)=O)C2=O [Alvespimycin] (1000 nM) | 35.4
CN(C)/N=N/c1[nH]cnc1C(N)=O [Dacarbazine] (10000 nM) | 100
Cc1ccc(-n2nc(C(C)(C)C)cc2NC(=O)Nc2ccc(OCCN3CCOCC3)c3ccccc23)cc1 [Doramapimod] (10000 nM) | 97.8
Cc1ccc(C(=O)Nc2ccc(CN3CCN(C)CC3)c(C(F)(F)F)c2)cc1C#Cc1cnc2cccnn12 [Ponatinib] (1000 nM) | 53.9
COc1cc2nccc(Oc3ccc(NC(=O)C4(C(=O)Nc5ccc(F)cc5)CC4)cc3)c2cc1OC [Cabozantinib] (1000 nM) | 89
CC1(C)NC(=O)N(c2ccc([N+](=O)[O-])c(C(F)(F)F)c2)C1=O [Nilutamide] (10000 nM) | 104

Tested on: BT-474
Experiment: as above
Conditions: incubation time: 72 h
How it was run: as §1

SMILES | normalised response [%]
N[C@@H](CSC(c1ccccc1)(c1ccccc1)c1ccccc1)C(=O)O [S-trityl-L-cysteine] (40000 nM) | 89.6
CNCc1ccc(-c2[nH]c3cc(F)cc4c3c2CCNC4=O)cc1 [Rucaparib] (10000 nM) | 80.9
CO[C@H]1/C=C\C=C(/C)C(=O)NC2=CC(=O)C(NCCN(C)C)=C(C[C@@H](C)C[C@H](OC)[C@H](O)[C@@H](C)/C=C(\C)[C@@H]1OC(N)=O)C2=O [Alvespimycin] (1000 nM) | 28
CN(C)/N=N/c1[nH]cnc1C(N)=O [Dacarbazine] (10000 nM) | 102
Cc1ccc(-n2nc(C(C)(C)C)cc2NC(=O)Nc2ccc(OCCN3CCOCC3)c3ccccc23)cc1 [Doramapimod] (10000 nM) | 80.3
Cc1ccc(C(=O)Nc2ccc(CN3CCN(C)CC3)c(C(F)(F)F)c2)cc1C#Cc1cnc2cccnn12 [Ponatinib] (1000 nM) | 30.6
COc1cc2nccc(Oc3ccc(NC(=O)C4(C(=O)Nc5ccc(F)cc5)CC4)cc3)c2cc1OC [Cabozantinib] (1000 nM) | 83.8
CC1(C)NC(=O)N(c2ccc([N+](=O)[O-])c(C(F)(F)F)c2)C1=O [Nilutamide] (10000 nM) | 103

Tested on: CAL-148
Experiment: as above
Conditions: incubation time: 72 h
How it was run: as §1

SMILES | normalised response [%]
N[C@@H](CSC(c1ccccc1)(c1ccccc1)c1ccccc1)C(=O)O [S-trityl-L-cysteine] (40000 nM) | 100
CNCc1ccc(-c2[nH]c3cc(F)cc4c3c2CCNC4=O)cc1 [Rucaparib] (10000 nM) | 71.2
CO[C@H]1/C=C\C=C(/C)C(=O)NC2=CC(=O)C(NCCN(C)C)=C(C[C@@H](C)C[C@H](OC)[C@H](O)[C@@H](C)/C=C(\C)[C@@H]1OC(N)=O)C2=O [Alvespimycin] (1000 nM) | 26.3
CN(C)/N=N/c1[nH]cnc1C(N)=O [Dacarbazine] (10000 nM) | 103
Cc1ccc(-n2nc(C(C)(C)C)cc2NC(=O)Nc2ccc(OCCN3CCOCC3)c3ccccc23)cc1 [Doramapimod] (10000 nM) | 75.7
Cc1ccc(C(=O)Nc2ccc(CN3CCN(C)CC3)c(C(F)(F)F)c2)cc1C#Cc1cnc2cccnn12 [Ponatinib] (1000 nM) | 85.4
COc1cc2nccc(Oc3ccc(NC(=O)C4(C(=O)Nc5ccc(F)cc5)CC4)cc3)c2cc1OC [Cabozantinib] (1000 nM) | 104
CC1(C)NC(=O)N(c2ccc([N+](=O)[O-])c(C(F)(F)F)c2)C1=O [Nilutamide] (10000 nM) | 112
